Measured values reported in publication PMC10386950 (Clinical Pharmacokinetics, 2023).

Test system: UDP-glucuronosyltransferases (UGTs)
Experiment: Metabolic ratio
Type: in vivo, human
Conditions: Child C patients

SMILES: OCc1ncc2n1-c1ccc(Cl)cc1C(c1ccccc1F)=NC2 [1′-Hydroxymidazolam]
- Decrease of the MR for glucuronide formation: approximately 80%
